Data taken from ChEMBL document CHEMBL5500352, “ML162 derivatives incorporating a naphthoquinone unit as ferroptosis/apoptosis inducers: Design, synthesis, anti-cancer activity, and drug-resistance reversal evaluation” (Eur J Med Chem, 2024).
Activity calls are given as the source filed them. The calls are words filed in the database; no cut-off is given here.

Columns and labels:
[1] = tested on: HT-1080; assay: Induction of apoptosis in human HT-1080 cells assessed as late apoptotic cells at 1 uM incubated for 24 hrs by Annexin-V FITC/PI staining based flow cytometry analysis (reference value: 1.66%); assay type: functional
[2] = tested on: HT-1080; assay: Induction of ferroptosis in human HT-1080 cells assessed as mitochondrial swelling at 4 uM after 24 hrs by transmission electron microscope analysis; assay type: functional, cell-based
[3] = Toxicity in BALB/c nude mouse xenografted with human HT-1080 cells assessed as necrosis at 20 to 40 mg/kg, ip administered once daily for 19 days and measured every 2 days by H and E staining based assay; assay type: organism-based; conditions: in vivo, 456 h, dose 20-40 mg/kg, time 19 day
[4] = tested on: HT-1080; assay: Induction of apoptosis in human HT-1080 cells assessed as viable cells at 1 uM incubated for 24 hrs by Annexin-V FITC/PI staining based flow cytometry analysis (reference value: 92.5%); assay type: functional; conditions: read-out: Activity
[5] = tested on: AMG 510-resistant MIA PaCa-2; assay: Cytotoxicity against human AAMG 510-resistant MIA PaCa-2 cells at 10 uM; assay type: functional, cell-based
[6] = Toxicity in BALB/c nude mouse xenografted with human HT-1080 cells assessed as change in heart morphology at 20 to 40 mg/kg, ip administered once daily for 19 days and measured every 2 days by H and E staining based assay; assay type: organism-based; conditions: in vivo, 456 h, dose 20-40 mg/kg, time 19 day
[7] = tested on: HT-1080; assay: Induction of ferroptosis in human HT-1080 cells assessed as accumulation of intracellular ROS level at 4 uM after 12 hrs by DCFH-DA staining based confocal laser scanning microscopy analysis; assay type: functional, cell-based
[8] = tested on: HT-1080; assay: Induction of ferroptosis in human HT-1080 cells assessed as appearance of ruptured mitochondria at 4 uM after 24 hrs by transmission electron microscope analysis; assay type: functional, cell-based
[9] = tested on: HT-1080; assay: Induction of ferroptosis in human HT-1080 cells assessed as accumulation of lipid peroxidation at 10 uM after 6 hrs by BODIPYTM 581/591C11 probe based flow cytometry assay; assay type: functional, cell-based
[10] = tested on: HT-1080; assay: Inhibition of cell migration in human HT-1080 cells incubated for 24 to 48 hrs by inverted microscope based wound healing assay; assay type: functional; conditions: dose 1-2 µM, time 24-48 hrs
[11] = target: T1, Phospholipid hydroperoxide glutathione peroxidase GPX4 (Homo sapiens) (UniProt P36969); assay: Induction of GPX4 degradation in human HT-1080 cells at 2 to 4 uM after 24 hrs in presence of MG132 by Western blotting assay; assay type: cell-based; conditions: dose 2-4 µM
T1 sequence (whole entry): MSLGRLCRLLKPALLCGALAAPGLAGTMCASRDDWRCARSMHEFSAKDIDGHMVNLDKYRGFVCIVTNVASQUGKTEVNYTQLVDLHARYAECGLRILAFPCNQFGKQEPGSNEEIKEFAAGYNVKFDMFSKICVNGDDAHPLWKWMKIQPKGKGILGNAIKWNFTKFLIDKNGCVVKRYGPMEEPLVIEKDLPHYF

[12] = target: T1, Phospholipid hydroperoxide glutathione peroxidase GPX4 (Homo sapiens); assay: Induction of GPX4 degradation in human HT-1080 cells at 2 uM after 24 hrs by Western blotting assay; assay type: cell-based
[13] = tested on: HT-1080; assay: Induction of apoptosis in human HT-1080 cells assessed as early apoptotic cells at 1 uM incubated for 24 hrs by Annexin-V FITC/PI staining based flow cytometry analysis (reference value: 1.85%); assay type: functional
[14] = tested on: HT-1080; assay: Inhibition of colony formation in human HT-1080 cells incubated for 48 hrs followed by replacement with fresh media and measured after 12 days by crystal violet staining based assay; assay type: functional, cell-based; conditions: dose 1-2 µM
[15] = tested on: HT-1080; assay: Induction of apoptosis in human HT-1080 cells assessed as early apoptotic cells at 2 uM incubated for 24 hrs by Annexin-V FITC/PI staining based flow cytometry analysis (reference value: 1.85%); assay type: functional
[16] = tested on: HT-1080; assay: Antitumor activity against human HT-1080 cells xenografted in ip dosed BALB/c nude mouse assessed as reduction in GPX4 level administered once daily for 19 days and measured every 2 days by immunohistochemistry assay; assay type: functional, organism-based; conditions: dose 20-40 mg/kg, time 19.0 day
[17] = tested on: HT-1080; assay: Induction of apoptosis in human HT-1080 cells assessed as late apoptotic cells at 2 uM incubated for 24 hrs by Annexin-V FITC/PI staining based flow cytometry analysis (reference value: 1.66%); assay type: functional
[18] = tested on: HT-1080; assay: Cytotoxicity against human HT-1080 cells assessed as cell viability at 4 uM in presence of fer-1 (reference value: 30%); assay type: functional; conditions: read-out: Activity
[19] = tested on: HT-1080; assay: Induction of apoptosis in human HT-1080 cells assessed as necrotic cells at 1 uM incubated for 24 hrs by Annexin-V FITC/PI staining based flow cytometry analysis (reference value: 3.98%); assay type: functional
[20] = tested on: HT-1080; assay: Induction of apoptosis in human HT-1080 cells assessed as viable cells at 4 uM incubated for 24 hrs by Annexin-V FITC/PI staining based flow cytometry analysis (reference value: 92.5%); assay type: functional; conditions: read-out: Activity
[21] = tested on: HT-1080; assay: Induction of apoptosis in human HT-1080 cells assessed as early apoptosis at 1 to 2 uM incubated for 48 hrs by Annexin-V FITC/PI staining based flow cytometry analysis; assay type: functional, cell-based; conditions: dose 1-2 µM
[22] = tested on: HT-1080; assay: Induction of ferroptosis in human HT-1080 cells assessed as accumulation of lipid peroxidation at 1 to 4 uM after 12 hrs by BODIPYTM 581/591C11 probe based flow cytometry assay; assay type: functional, cell-based; conditions: dose 1-4 µM
[23] = tested on: HT-1080; assay: Induction of apoptosis in human HT-1080 cells assessed as early apoptotic cells at 4 uM incubated for 24 hrs by Annexin-V FITC/PI staining based flow cytometry analysis (reference value: 1.85%); assay type: functional
[24] = Toxicity in BALB/c nude mouse xenografted with human HT-1080 cells assessed as change in spleen morphology at 20 to 40 mg/kg, ip administered once daily for 19 days and measured every 2 days by H and E staining based assay; assay type: organism-based; conditions: in vivo, 456 h, dose 20-40 mg/kg, time 19 day
[25] = tested on: HT-1080; assay: Induction of apoptosis in human HT-1080 cells assessed as increase in Bax level after 24 hrs by Western blotting analysis; assay type: functional, cell-based; conditions: dose 0.5-4 µM
[26] = Toxicity in BALB/c nude mouse xenografted with human HT-1080 cells assessed as cellular inflammation at 20 to 40 mg/kg, ip administered once daily for 19 days and measured every 2 days by H and E staining based assay; assay type: organism-based; conditions: in vivo, 456 h, dose 20-40 mg/kg, time 19 day
[27] = Toxicity in BALB/c nude mouse xenografted with human HT-1080 cells assessed as change in kidney morphology at 20 to 40 mg/kg, ip administered once daily for 19 days and measured every 2 days by H and E staining based assay; assay type: organism-based; conditions: in vivo, 456 h, dose 20-40 mg/kg, time 19 day
[28] = Toxicity in BALB/c nude mouse xenografted with human HT-1080 cells assessed as edema at 20 to 40 mg/kg, ip administered once daily for 19 days and measured every 2 days by H and E staining based assay; assay type: organism-based; conditions: in vivo, 456 h, dose 20-40 mg/kg, time 19 day
[29] = tested on: HT-1080; assay: Antitumor activity against human HT-1080 cells xenografted in BALB/c nude mouse assessed as tumor growth inhibition at 20 mg/kg, ip administered once daily for 19 days and measured every 2 days; assay type: functional, organism-based; conditions: time 19.0 day
[30] = Potentiation of AMG510 induced cytotoxicity in human AMG 510-resistant MIA PaCa-2 cells assessed as reduction in cell survival rate at 5 uM in presence of 10 nM AMG510 (reference value: 90%); assay type: functional
[31] = tested on: HT-1080; assay: Induction of apoptosis in human HT-1080 cells assessed as decrease in Bcl-2 level after 24 hrs by Western blotting analysis; assay type: functional, cell-based; conditions: dose 0.5-4 µM

For `O=C(CCCCCNC1=CC(=O)c2ccccc2C1=O)Nc1ccc(N(C(=O)CCl)C(C(=O)NCCc2ccccc2)c2cccs2)cc1` (stereo unspecified), the Activity [1] was 3.11%, the Activity [2] was “Active” and the Activity [3] was “Non-Toxic”. The viability at 1 µM [4] was 90.7%, the Activity [5] was “Active” and the Activity [6] was “Non-Toxic”. For the same compound, the Activity [7] was “Active”, the Activity [8] was “Active” and the Activity [9] was “Active”. For the same compound, the inhibition [10] was “Dose-Dependent Effect”, the Activity [11] was “inactive” and the Activity [12] was “Active”. For the same compound, the Activity [13] was 3.85%, the inhibition [14] was “Dose-Dependent Effect” and the Activity [15] was 8.48%. For the same compound, the Activity [16] was “Dose-Dependent Effect”, the Activity [17] was 4.75% and the viability at 4 µM [18] was 66%. The Activity [19] was 2.32%, the viability at 4 µM [20] was 79.9% and the Activity [21] was “Active”. The Activity [22] was “Active”, the Activity [23] was 9.04% and the Activity [24] was “Non-Toxic”. For the same compound, the Activity [25] was “Dose-Dependent Effect”, the Activity [26] was “Non-Toxic” and the Activity [27] was “Non-Toxic”. For the same compound, the Activity [28] was “Non-Toxic”, the Activity [29] was “Active” and the Activity [30] was about 10%. The Activity [31] was “Dose-Dependent Effect”.
